# Experimental data published in US5637309A, “Physiologically active substance-prolonged releasing-type pharmaceutical preparation” (Shiseido Company, Ltd., priority 1993, dated 1997).
# Key:
# [1] = system: basilar artery; assay: Cerebral vasospasm inhibition test on maxadilan (SEQ ID NO: 3) by cisterna puncture, angiography of the basilar artery; assay type: in vivo, Japanese white rabbit; settings: aqueous solution, 7 μg per kg
# Description: Cerebral vasospasm inhibition test on maxadilan (SEQ ID NO: 3)
# A Japanese white rabbit (male, weighing 2-3 kg) was subjected to general anesthesia by injection of sodium pentobarbital through the auricular vein. After the rabbit was retained so as not to move, the surroundings of the punctured vein were disinfected with sterilized ethanol, a self-retaining needle was punctured into the vein, and immediately thereafter, a silicone-made extension tube equipped, at one end, with a three way cock connected at the two ways with 10-ml syringes each containing physiological saline and connected at the residual way with a 10-ml syringe containing sodium pentobarbital was connected to the self-retaining needle (when the blood vessel is thin, the blood vessel is stimulated by fingers to dilate it). […]
# A spot for angiography was determined by transillumination, the head was fast fixed, back flow of the blood was confirmed, and 0.8 ml of a contrast medium was injected under a certain pressure (2.3 kg/cm^2). […]
# Groups of rabbits, one group consisting of 5 animals, were treated as mentioned above, and among them, rabbits were selected wherein when the basilar artery was divided, starting from the junction from the vertebral artery, into three equal parts, and the diameter at the middle point was measured, spasm occurred at a level of 18% or more. […]
# [2] = relative to SEQ ID NO: 2; cited from earlier work
substance,measurement,setting,value
SEQ ID NO: 3: peptide wherein an amino acid sequence residue GSIL- is bonded to the N-terminus of SEQ ID NO: 1 maxadilan,Inhibition of spasm compared to the sterile water administration group,[1]; 3 days after blood injection,spasm was significantly inhibited
same,Duration of significant inhibition of spasm (from immediately after the administration),[1]; vs sterile water group,about 4 hours
same,"Vasodilative action (particularly, erythema activities), times higher than that of SEQ ID NO: 2",[2],about 10 times
